# Legend:
# [1] = tested on: blood coagulation components; type: in vivo
# Description: The following parameters and endpoints were evaluated in this study: mortality, body weight, physical, clinical pathology parameters (hematology and coagulation), coagulation time, and bioanalytical parameters.
# The vehicle and test article were administered via intravenous (IV) infusion once on Day 1 for 135 minutes (initiated 30 minutes prior to starting the Cardiopulmonary Bypass (CPB) and continuing for 105 minutes of CPB). Group 2 animals received a […] IV bolus dose immediately prior to the start of IV infusion. Group 3, 4, and 5 animals received a 10 mg/kg IV bolus dose prior to the start of the IV infusion; with the CPB machine primed with test article at 10 μg/mL.
# Infusion of the Compound 1 was started 30 minutes prior to the animal being placed on the CPB pump. The CPB pump was primed with 0.9% saline.
# Venous and arterial sheaths were flushed with the Compound 1 at a concentration of 10 μg/mL. An IV bolus dose of the test article was administered immediately prior to the start of the infusion. Infusion of Compound 1 was started 30 minutes prior to the animal being placed on the CPB pump. The CPB […] was primed with 10 μg/mL of the Compound 1 prior to initiation of the CPB pump.
# An IV bolus dose of the Compound 1 was administered immediately prior to the start of the infusion. Infusion of Compound 1 was started 30 minutes prior to the animal being placed on the CPB pump.
# [2] = Dynamic Vapor Sorption (DVS) with XRPD before and after; type: physicochemical
# Description: Samples were analyzed using an Aquadyne DVS-2 gravimetric water sorption analyzer. The relative humidity was adjusted between 2-95% and the weight of the sample was continuously monitored and recorded with respect to the relative humidity and time.
# The same material was subjected under the Dynamic Vapor Sorption (DVS, FIGS. 3 and 4).
# The purity of the sample was also verified by ^1H-NMR. […] The amorphous salt was also studied by DVS. During Desorption 1, (from 50 to 0% RH), a weight loss of around 3% was observed whilst, during Sorption 1 (from 0 to 95% RH), a weight gain of 10%. Desorption 2 indicates a weight loss of 3% was observed and during Sorption 2 (from 0 to 95% RH) the weight loss was continued to additional 1%. In the final stage, Desorption 3 (from 95 to 50% RH), around 1% weight loss was observed (see FIG. 17). The amorphous Compound 1.HCl was analyzed by XRPD and optical microscopy post-DVS experiment.
# [3] = Solubility of Compound 1.HCl measured gravimetrically in solvents/solvent mixtures; type: physicochemical; conditions: thermodynamic from solid, slurried 48 h, gravimetric
# Description: Solubility of Compound 1.HCl was measured gravimetrically in 12 different solvents and solvent mixtures at 15 and 45° C. About 90 mg of the compound was dispensed in 1 mL of the solvent/solvent mixture and slurried for 48 h. The vials were centrifuged. The supernatant was collected and left for slow evaporation under vacuum at 45° C. The solids obtained after evaporation were used to determine the solubility of Compound 1.HCl and analyzed by XRPD for any new form. Table 1 represents the solubility of Compound 1.HCl in different solvents.
# [4] = Relative stability of the forms: competitive slurries of Pattern A and amorphous form; type: physicochemical; conditions: Pattern A + amorphous form in TBME, IPA and THF:H2O (95:5), RT and 45° C.
# [5] = Heating of amorphous salt at 140° C., XRPD and DSC; type: physicochemical; conditions: amorphous salt heated to 140° C. for 30 min (Sample D9)
# Description: FIG. 18 illustrates the post-DVS XRPD comparison with the amorphous and Pattern A (original salt). The amorphous salt was heated to 140° C. for 30 min and characterized by XRPD and DSC (Sample ID: D9). […] The DSC thermogram in FIG. 21 also confirms the conversion of amorphous to crystalline (Pattern A) after heating the amorphous sample at 140° C.
# [6] = amorphous salt (Sample C1), from 0 to 95% RH
structure (smiles),measurement,setting,value
"C[C@@H](NC(=O)N1C(=O)[C@H](Cc2ccnc(N)c2)[C@H]1C(=O)O)C1CCCCC1 [Compound 1, (2S,3R)-3-[(2-aminopyridin-4-yl)methyl]-1-{[(1R)-1-cyclohexylethyl]carbamoyl}-4-oxoazetidine-2-carboxylic acid]",morbidity or mortality,"[1]; dog, in vivo",not associated with any increases in morbidity or mortality
same,survival,"[1]; dog, in vivo",All animals survived to study termination
same,prevention of activation of blood coagulation in components of cardiopulmonary bypass,"[1]; hound CPB model, 105-minute CPB run",successful in preventing the activation of blood coagulation in components of cardiopulmonary bypass
same,pressure gradient across the membrane oxygenator,"[1]; hound CPB model, IV infusion at multiple doses, entire pump run",stayed consistent through the entire run
same,selectivity of anticoagulant effects,"[1]; hound CPB model, coagulation parameters",selective to inhibition of activated partial thromboplastin time (aPTT)
same,aPTT during Compound 1 infusion and prior to CPB,"[1]; hound, all animals, IV infusion 3 or 10 mg/kg/hr",moderately to markedly prolonged
same,"aPTT following cessation of infusion and CPB, at the conclusion of the study","[1]; hound, all groups",remained moderately prolonged
C[C@@H](NC(=O)N1C(=O)[C@H](Cc2ccnc(N)c2)[C@H]1C(=O)O)C1CCCCC1.Cl [Compound 1.HCl],crystalline pattern by XRPD after DVS,"[2]; crystalline Pattern A, after DVS",did not change
same,moisture uptake (DVS),"[2]; crystalline Pattern A, relative humidity levels between 0-95%",about 4%
same,solubility at 48 h,"[3]; aqueous with cosolvent or surfactant or cyclodextrin, MeOH:H2O (1:1), 15° C.",> 100000 µg/mL
same,solubility at 48 h,"[3]; aqueous with cosolvent or surfactant or cyclodextrin, MeOH:H2O (1:1), 45° C.",> 100000 µg/mL
same,solubility at 48 h,"[3]; organic solvent or mixture, Acetone, 15° C.",2200 µg/mL
same,solubility at 48 h,"[3]; organic solvent or mixture, Acetone, 45° C.",4800 µg/mL
same,solubility at 48 h,"[3]; organic solvent or mixture, EtOAc, 15° C.",200 µg/mL
same,solubility at 48 h,"[3]; organic solvent or mixture, EtOAc, 45° C.",2100 µg/mL
same,solubility at 48 h,"[3]; organic solvent or mixture, EtOH:H2O (95:5), 15° C.",> 100000 µg/mL
same,solubility at 48 h,"[3]; organic solvent or mixture, EtOH:H2O (95:5), 45° C.",> 100000 µg/mL
same,solubility at 48 h,"[3]; organic solvent or mixture, Heptane, 15° C.",< 1000 µg/mL
same,solubility at 48 h,"[3]; organic solvent or mixture, Heptane, 45° C.",2100 µg/mL
same,solubility at 48 h,"[3]; organic solvent or mixture, IPA, 15° C.",17000 µg/mL
same,solubility at 48 h,"[3]; organic solvent or mixture, IPA, 45° C.",43000 µg/mL
same,solubility at 48 h,"[3]; organic solvent or mixture, IPA:H2O (9:1), 15° C.",> 100000 µg/mL
same,solubility at 48 h,"[3]; organic solvent or mixture, IPA:H2O (9:1), 45° C.",> 100000 µg/mL
same,solubility at 48 h,"[3]; organic solvent or mixture, MeCN, 15° C.",700 µg/mL
same,solubility at 48 h,"[3]; organic solvent or mixture, MeCN, 45° C.",700 µg/mL
same,solubility at 48 h,"[3]; organic solvent or mixture, MeOH, 15° C.",> 100000 µg/mL
same,solubility at 48 h,"[3]; organic solvent or mixture, MeOH, 45° C.",> 100000 µg/mL
same,solubility at 48 h,"[3]; organic solvent or mixture, TBME, 15° C.",400 µg/mL
same,solubility at 48 h,"[3]; organic solvent or mixture, TBME, 45° C.",4100 µg/mL
same,solubility at 48 h,"[3]; organic solvent or mixture, THF, 15° C.",1200 µg/mL
same,solubility at 48 h,"[3]; organic solvent or mixture, THF, 45° C.",6700 µg/mL
same,solubility at 48 h,"[3]; Water, 15° C.",> 100000 µg/mL
same,solubility at 48 h,"[3]; Water, 45° C.",> 100000 µg/mL
same,solid form by XRPD of competitive slurries after 24 h,[4],did not exhibit any change in the crystalline form (Pattern A)
same,solid form by XRPD of competitive slurries at t=5 min,[4],transformed to Pattern A
C[C@@H](NC(=O)N1C(=O)[C@H](Cc2ccnc(N)c2)[C@H]1C(=O)O)C1CCCCC1.Cl [amorphous Compound 1.HCl],"weight loss, DVS Desorption 2",[2]; amorphous salt (Sample C1),3%
same,solid form by XRPD post-DVS,"[2]; amorphous salt (Sample C1), post-DVS experiment",reverts back to crystalline salt (Pattern A)
same,"additional weight loss, DVS Sorption 2",[2]; [6],1%
same,"weight gain, DVS Sorption 1",[2]; [6],10%
same,"weight loss, DVS Desorption 1","[2]; amorphous salt (Sample C1), from 50 to 0% RH",around 3%
same,"weight loss, DVS Desorption 3","[2]; amorphous salt (Sample C1), from 95 to 50% RH",around 1%
same,solid form by XRPD after heating,[5],transformation to Pattern A (crystalline salt)

# From patent publication US20210253550A1, “THERAPEUTIC COMPOUNDS AND COMPOSITIONS” (eXIthera Pharmaceuticals, Inc., priority 2018, published 2021)
